Source: patent US9073881B2, “Benzoic acid derivatives” (HOFFMANN-LA ROCHE INC., priority 2011, dated 2015)

Target: Human eIF4E (Homo sapiens (Human), UniProt P06730)
Test: Human eIF4E/4G binding assay (time-resolved fluorescence, HH-eIF4E and biotin-labeled 4G2 peptide)
Conditions: inhibition of binding of His-tagged human eIF4E (aa 28-217) to biotin-labeled 4G2 peptide
Procedure: The protein was solubilized with 8 M urea and purified under denaturing conditions using nickel-charged HisTrap HP columns (GE Healthcare). The protein was refolded by diluting to approximately 0.25 mg/mL with 6 M urea, 20 mM Hepes pH 7.0, 500 mM NaCl, 1 mM DTT, 1 mM EDTA, and 0.5 M arginine.HCl, and then dialyzing overnight into the same buffer without the urea. The protein was further dialyzed into 20 mM Hepes pH 6.5, 50 mM NaCl, 1 mM EDTA, and 1 mM DTT, filtered, and then concentrated using Hitrap SP sepharose FF columns (GE Healthcare). The protein was dialyzed into 20 mM Hepes pH 7.0, 500 mM NaCl, 5 mM DTT, and 10% glycerol and stored at −80° C. until use. Test compounds (1.6 mM stock in DMSO) were diluted 3 fold in series in DMSO. Compound solutions were diluted 4 fold in Assay Buffer (50 mM sodium phosphate, pH 6.5, 50 mM KCl, 1 mM DTT and 0.5 mg/mL gammaglobulin). […] The samples were incubated at room temperature for 20 minutes. […] IC50 values were calculated using Condoseo software (Genedata AG).

Human eIF4E, sequence (P06730 28-217): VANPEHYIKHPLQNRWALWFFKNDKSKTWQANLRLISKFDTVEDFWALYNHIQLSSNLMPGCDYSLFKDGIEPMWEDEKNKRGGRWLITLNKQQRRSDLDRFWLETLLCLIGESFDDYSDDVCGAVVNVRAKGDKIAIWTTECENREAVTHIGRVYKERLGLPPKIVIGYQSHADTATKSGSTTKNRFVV

| Compound | IC50 [µM] |
| --- | --- |
| O=C(O)c1cc(-c2nc(-c3ccc(Cl)c(Cl)c3)cs2)ccc1-c1cccc(F)c1F [Example 138, 4-[4-(3,4-Dichloro-phenyl)-thiazol-2-yl]-2′,3′-difluoro-biphenyl-2-carboxylic acid] | 1.9 |
| O=C(O)c1cc(-c2nc(-c3ccc(C(F)(F)F)cc3)cs2)ccc1-c1ccccc1[N+](=O)[O-] [Example 7, 2′-Nitro-4-[4-(4-trifluoromethyl-phenyl)-thiazol-2-yl]-biphenyl-2-carboxylic acid] | 2.4 |
| O=C(O)c1cc(-c2nc(-c3ccc(Cl)cc3Cl)cs2)ccc1-c1ccccc1[N+](=O)[O-] [Example 10, 4-[4-(2,4-Dichloro-phenyl)-thiazol-2-yl]-2′-nitro-biphenyl-2-carboxylic acid] | 3.5 |
| COc1ccc(CNC(=O)c2ccc(-c3ccc(-c4nc(-c5ccc(Cl)c(Cl)c5)cs4)cc3C(=O)O)cc2)cc1 [Example 64, 4-[4-(3,4-Dichloro-phenyl)-thiazol-2-yl]-4′-(4-methoxy-benzylcarbamoyl)-biphenyl-2-carboxylic acid] | 2 |
| O=C(O)c1cc(-c2nc(-c3ccc(Cl)c(Cl)c3)cs2)ccc1-c1ccc(C(=O)N2CCCC2)cc1 [Example 57, 4-[4-(3,4-Dichloro-phenyl)-thiazol-2-yl]-4′-(pyrrolidine-1-carbonyl)-biphenyl-2-carboxylic acid] | 4.3 |
| O=C(NCc1cccs1)c1ccc(-c2ccc(-c3nc(-c4ccc(Cl)c(Cl)c4)cs3)cc2C(=O)O)cc1 [Example 75, 4-[4-(3,4-Dichloro-phenyl)-thiazol-2-yl]-4′-[(thiophen-2-ylmethyl)-carbamoyl]-biphenyl-2-carboxylic acid] | 3.1 |
| O=C(NCC1CCOCC1)c1ccc(-c2ccc(-c3nc(-c4ccc(Cl)c(Cl)c4)cs3)cc2C(=O)O)cc1 [Example 60, 4-[4-(3,4-Dichloro-phenyl)-thiazol-2-yl]-4′-[(tetrahydro-pyran-4-ylmethyl)-carbamoyl]-biphenyl-2-carboxylic acid] | 8.9 |
| Cc1ccc(Cl)c(-c2ccc(-c3nc(-c4ccc(Cl)c(Cl)c4)cs3)cc2C(=O)O)c1 [Example 144, 2′-Chloro-4-[4-(3,4-dichloro-phenyl)-thiazol-2-yl]-5′-methyl-biphenyl-2-carboxylic acid] | 1.1 |
| CCN(CC)CCCNC(=O)c1ccc(-c2ccc(-c3nc(-c4ccc(Cl)c(Cl)c4)cs3)cc2C(=O)O)cc1 [Example 47, 4-[4-(3,4-Dichloro-phenyl)-thiazol-2-yl]-4′-(3-diethylamino-propylcarbamoyl)-biphenyl-2-carboxylic acid] | > 80 |
| O=C(O)c1cc(-c2nc(-c3ccc(Cl)c(Cl)c3)cs2)ccc1-c1cc(Cl)cc(Cl)c1Cl [Example 149, 2′,3′,5′-Trichloro-4-[4-(3,4-dichloro-phenyl)-thiazol-2-yl]-biphenyl-2-carboxylic acid] | > 80 |
| O=C(O)c1cc(-c2nc(-c3ccc(Cl)c(Cl)c3)cs2)ccc1-c1cccc([N+](=O)[O-])c1 [Example 46, 4-[4-(3,4-Dichloro-phenyl)-thiazol-2-yl]-3′-nitro-biphenyl-2-carboxylic acid] | 3.8 |
| O=C(O)c1cc(-c2nc(-c3ccc(Cl)c(Cl)c3)cs2)ccc1-c1cc(F)cc(F)c1F [Example 133, 4-[4-(3,4-Dichloro-phenyl)-thiazol-2-yl]-2′,3′,5′-trifluoro-biphenyl-2-carboxylic acid] | 1.6 |
| NC(=O)c1ccc(Cl)c(-c2ccc(-c3nc(-c4ccc(Cl)c(Cl)c4)cs3)cc2C(=O)O)c1 [Example 109, 5′-Carbamoyl-2′-chloro-4-[4-(3,4-dichloro-phenyl)-thiazol-2-yl]-biphenyl-2-carboxylic acid] | 3.7 |
| Cc1ccc(-c2csc(-c3ccc(-c4ccccc4[N+](=O)[O-])c(C(=O)O)c3)n2)c(C)c1 [Example 40, 4-[4-(2,4-Dimethyl-phenyl)-thiazol-2-yl]-2′-nitro-biphenyl-2-carboxylic acid] | 4.2 |
| COc1ccc(-c2csc(-c3ccc(-c4ccccc4[N+](=O)[O-])c(C(=O)O)c3)n2)cc1 [Example 32, 4-[4-(4-Methoxy-phenyl)-thiazol-2-yl]-2′-nitro-biphenyl-2-carboxylic acid] | 8.3 |
| O=C(O)c1cc(-c2nc(-c3ccccn3)cs2)ccc1-c1ccccc1[N+](=O)[O-] [Example 37, 2′-Nitro-4-(4-pyridin-2-yl-thiazol-2-yl)-biphenyl-2-carboxylic acid] | > 80 |
| O=C(NCCN1CCOCC1)c1ccc(-c2ccc(-c3nc(-c4ccc(Cl)c(Cl)c4)cs3)cc2C(=O)O)cc1 [Example 59, 4-[4-(3,4-Dichloro-phenyl)-thiazol-2-yl]-4′-(2-morpholin-4-yl-ethylcarbamoyl)-biphenyl-2-carboxylic acid] | > 80 |

| Compound | IC50 [µM] |
| --- | --- |
| Cc1cc(C(N)=O)ccc1-c1ccc(-c2nc(-c3ccc(Cl)c(Cl)c3)cs2)cc1C(=O)O [Example 78, 4′-Carbamoyl-4-[4-(3,4-dichloro-phenyl)-thiazol-2-yl]-2′-methyl-biphenyl-2-carboxylic acid] | 1.9 |
| O=C(O)c1cc(-c2nc(-c3ccncc3)cs2)ccc1-c1ccccc1[N+](=O)[O-] [Example 39, 2′-Nitro-4-(4-pyridin-4-yl-thiazol-2-yl)-biphenyl-2-carboxylic acid] | > 80 |
| CC(=O)c1ccc(-c2ccc(-c3nc(-c4ccc(Cl)c(Cl)c4)cs3)cc2C(=O)O)cc1 [Example 120, 4′-Acetyl-4-[4-(3,4-dichloro-phenyl)-thiazol-2-yl]-biphenyl-2-carboxylic acid] | 3.8 |
| O=C(O)c1cc(-c2nc(-c3ccc(Br)cc3)cs2)ccc1-c1ccccc1[N+](=O)[O-] [Example 27, 4-[4-(4-Bromo-phenyl)-thiazol-2-yl]-2′-nitro-biphenyl-2-carboxylic acid] | 4 |
| Cc1ccc(C=O)c(-c2ccc(-c3nc(-c4ccc(Cl)c(Cl)c4)cs3)cc2C(=O)O)c1 [Example 122, 4-[4-(3,4-Dichloro-phenyl)-thiazol-2-yl]-2′-formyl-5′-methyl-biphenyl-2-carboxylic acid] | 5.1 |
| N#Cc1ccc(Cl)c(-c2ccc(-c3nc(-c4ccc(Cl)c(Cl)c4)cs3)cc2C(=O)O)c1 [Example 108, 2′-Chloro-5′-cyano-4-[4-(3,4-dichloro-phenyl)-thiazol-2-yl]-biphenyl-2-carboxylic acid] | 3.5 |
| O=C(O)c1cc(-c2nc(-c3ccc(Cl)c(Cl)c3)cs2)ccc1-c1cc(C(F)(F)F)ccc1Cl [Example 128, 2′-Chloro-4-[4-(3,4-dichloro-phenyl)-thiazol-2-yl]-5′-trifluoromethyl-biphenyl-2-carboxylic acid] | 1.1 |
| CC(=O)c1ccc(Cl)c(-c2ccc(-c3nc(-c4ccc(Cl)c(Cl)c4)cs3)cc2C(=O)O)c1 [Example 118, 5′-Acetyl-2′-chloro-4-[4-(3,4-dichloro-phenyl)-thiazol-2-yl]-biphenyl-2-carboxylic acid] | 1.5 |
| O=C(O)c1cc(-c2nc(-c3ccc(Cl)c(Cl)c3)cs2)ccc1-c1ccc(F)cc1 [Example 129, 4-[4-(3,4-Dichloro-phenyl)-thiazol-2-yl]-4′-fluoro-biphenyl-2-carboxylic acid] | 2.6 |
| O=C(O)c1cc(-c2nc(-c3cccc(C(F)(F)F)c3)cs2)ccc1-c1ccccc1[N+](=O)[O-] [Example 6, 2′-Nitro-4-[4-(3-trifluoromethyl-phenyl)-thiazol-2-yl]-biphenyl-2-carboxylic acid] | 8.3 |
| COc1ccc(-c2ccc(-c3nc(-c4ccc(Cl)c(Cl)c4)cs3)cc2C(=O)O)c(C(F)(F)F)c1 [Example 87, 4-[4-(3,4-Dichloro-phenyl)-thiazol-2-yl]-4′-methoxy-2′-trifluoromethyl-biphenyl-2-carboxylic acid] | 1.3 |
| O=C(O)c1cc(-c2nc(-c3ccc(Cl)c(Cl)c3)cs2)ccc1-c1sccc1Cl [Example 146, 2-(3-Chloro-thiophen-2-yl)-5-[4-(3,4-dichloro-phenyl)-thiazol-2-yl]-benzoic acid] | 1.7 |
| CN(C)CCNC(=O)c1ccc(-c2ccc(-c3nc(-c4ccc(Cl)c(Cl)c4)cs3)cc2C(=O)O)cc1 [Example 49, 4-[4-(3,4-Dichloro-phenyl)-thiazol-2-yl]-4′-(2-dimethylamino-ethylcarbamoyl)-biphenyl-2-carboxylic acid] | > 80 |
| O=C(O)c1cc(-c2nc(-c3ccc(Cl)c(Cl)c3)cs2)ccc1-c1ccc(C(F)(F)F)cc1C(F)(F)F [Example 125, 4-[4-(3,4-Dichloro-phenyl)-thiazol-2-yl]-2′,4′-bis-trifluoromethyl-biphenyl-2-carboxylic acid] | 3 |
| O=C(O)c1cc(-c2nc(-c3ccc(Cl)c(Cl)c3)cs2)ccc1-c1ccc(F)cc1F [Example 132, 4-[4-(3,4-Dichloro-phenyl)-thiazol-2-yl]-2′,4′-difluoro-biphenyl-2-carboxylic acid] | 5.6 |
| O=C(O)c1cc(-c2nc(-c3cccc(F)c3)cs2)ccc1-c1ccccc1[N+](=O)[O-] [Example 24, 4-[4-(3-Fluoro-phenyl)-thiazol-2-yl]-2′-nitro-biphenyl-2-carboxylic acid] | 2.6 |
| N#Cc1ccc(-c2ccc(-c3nc(-c4ccc(Cl)c(Cl)c4)cs3)cc2C(=O)O)cc1Cl [Example 114, 3′-Chloro-4′-cyano-4-[4-(3,4-dichloro-phenyl)-thiazol-2-yl]-biphenyl-2-carboxylic acid] | 1.7 |
